# Assay results published in ChEMBL document CHEMBL1201862, “PubChem BioAssay data set” (2004).
# Calls of active or inactive are those of the source.
# Key:
# [1] = tested on: Candida albicans; test: growth inhibition of resistant C. albicans, dose response, CaCi-8 strain, fluconazole, dry powder, set 4 (AID 488950); type: functional, organism-based
# [2] = tested on: Candida albicans; test: fluconazole resistance reversal in C. albicans, dose response, CaCi-2 strain, Alamar Blue, dry powder, set 4 (AID 488943); type: functional, organism-based
# [3] = tested on: Candida albicans; test: growth inhibition of azole-resistant C. albicans, dose response, CaCi-8 strain, Alamar Blue, dry powder, set 3 (AID 488905); type: functional, organism-based
# [4] = tested on: Candida albicans; test: reversal of fluconazole resistance in C. albicans, dose response, CaCi-2 strain, Alamar Blue, dry powder, set 3 (AID 488907); type: functional, organism-based
# [5] = molecular target: Cysteine protease ATG4B (Homo sapiens, UniProt Q9Y4P1); type: functional;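 also: Fluorescence-based dose-response confirmation assay measuring inhibition of ATG4B activity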
# [6] = molecular target: Phospholipase A2 (Homo sapiens, UniProt P04054); type: functional;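 also: confirmatory dose-response counterscreen on phospholipase A2, testing hits that came from an ultra-high-throughput screen for ATG4B inhibitors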
# [7] = molecular target: T1, Sentrin-specific protease 8 (Homo sapiens, UniProt Q96LD8); test: SENP8 protease inhibitors, SAR follow-up, biochemical, luminescence (AID 504501); type: functional
# T1 sequence (Q96LD8 whole entry): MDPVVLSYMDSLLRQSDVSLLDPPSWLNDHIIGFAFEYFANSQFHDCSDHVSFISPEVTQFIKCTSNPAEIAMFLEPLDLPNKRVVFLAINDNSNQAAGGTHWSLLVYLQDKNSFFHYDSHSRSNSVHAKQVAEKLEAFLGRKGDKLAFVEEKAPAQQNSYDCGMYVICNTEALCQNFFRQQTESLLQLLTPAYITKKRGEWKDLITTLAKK
# [8] = molecular target: T2, Caspase-3 (Homo sapiens, UniProt P42574); test: SAR Analysis of small molecule inhibitors of Sentrin-specific proteases (SENPs) using a Caspase-3 Selectivity assay. [Related pubchem assays (depositor defined):AID2540, AID2599, AID434973, AID489001]; type: functional
# T2 sequence (P42574 whole entry): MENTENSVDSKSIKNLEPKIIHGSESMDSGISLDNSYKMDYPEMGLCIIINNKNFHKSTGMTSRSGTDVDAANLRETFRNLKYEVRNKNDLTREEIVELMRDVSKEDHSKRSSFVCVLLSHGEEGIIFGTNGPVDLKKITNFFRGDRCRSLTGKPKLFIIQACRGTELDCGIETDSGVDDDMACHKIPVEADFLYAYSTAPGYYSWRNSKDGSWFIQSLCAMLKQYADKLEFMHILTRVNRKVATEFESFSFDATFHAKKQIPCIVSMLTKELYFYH
# [9] = molecular target: T3, Sentrin-specific protease 6 (Homo sapiens, UniProt Q9GZR1); test: SAR Analysis of small molecule inhibitors of Sentrin-specific protease 6 (SENP6) using a Luminescent assay. [Related pubchem assays (depositor defined):AID2582, AID2599]; type: functional
# T3 sequence (Q9GZR1 whole entry): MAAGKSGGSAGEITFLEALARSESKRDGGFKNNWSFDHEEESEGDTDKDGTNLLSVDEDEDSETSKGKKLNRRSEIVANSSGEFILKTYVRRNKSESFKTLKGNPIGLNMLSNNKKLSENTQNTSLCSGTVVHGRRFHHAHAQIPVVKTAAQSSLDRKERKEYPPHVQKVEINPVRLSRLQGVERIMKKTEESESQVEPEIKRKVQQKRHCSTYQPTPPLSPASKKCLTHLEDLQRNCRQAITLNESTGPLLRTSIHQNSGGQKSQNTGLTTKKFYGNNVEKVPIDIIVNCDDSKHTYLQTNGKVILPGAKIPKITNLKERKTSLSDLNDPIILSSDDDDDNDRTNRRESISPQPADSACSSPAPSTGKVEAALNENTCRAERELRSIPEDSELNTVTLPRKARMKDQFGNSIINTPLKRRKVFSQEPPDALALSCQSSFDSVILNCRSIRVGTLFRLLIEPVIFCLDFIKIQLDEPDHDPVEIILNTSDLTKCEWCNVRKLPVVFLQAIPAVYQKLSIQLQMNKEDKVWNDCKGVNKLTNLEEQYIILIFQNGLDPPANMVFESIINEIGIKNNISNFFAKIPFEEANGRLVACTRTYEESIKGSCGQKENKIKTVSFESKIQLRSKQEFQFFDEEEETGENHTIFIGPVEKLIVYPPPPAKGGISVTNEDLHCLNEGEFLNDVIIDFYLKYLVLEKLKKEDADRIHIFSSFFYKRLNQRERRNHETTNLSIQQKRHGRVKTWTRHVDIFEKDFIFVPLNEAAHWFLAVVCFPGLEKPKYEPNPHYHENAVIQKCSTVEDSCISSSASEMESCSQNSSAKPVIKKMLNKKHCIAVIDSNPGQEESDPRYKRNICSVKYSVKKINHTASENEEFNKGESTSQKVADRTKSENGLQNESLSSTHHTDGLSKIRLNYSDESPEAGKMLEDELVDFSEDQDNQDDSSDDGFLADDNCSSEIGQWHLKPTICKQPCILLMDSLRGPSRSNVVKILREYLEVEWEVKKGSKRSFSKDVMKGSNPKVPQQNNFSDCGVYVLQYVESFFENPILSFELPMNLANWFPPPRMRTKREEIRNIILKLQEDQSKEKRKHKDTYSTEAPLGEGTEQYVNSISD
# [10] = molecular target: T4, Sentrin-specific protease 7 (Homo sapiens, UniProt Q9BQF6); test: SENP7 protease inhibitors, SAR follow-up, biochemical, luminescence (AID 504497); type: functional
# T4 sequence (Q9BQF6 whole entry): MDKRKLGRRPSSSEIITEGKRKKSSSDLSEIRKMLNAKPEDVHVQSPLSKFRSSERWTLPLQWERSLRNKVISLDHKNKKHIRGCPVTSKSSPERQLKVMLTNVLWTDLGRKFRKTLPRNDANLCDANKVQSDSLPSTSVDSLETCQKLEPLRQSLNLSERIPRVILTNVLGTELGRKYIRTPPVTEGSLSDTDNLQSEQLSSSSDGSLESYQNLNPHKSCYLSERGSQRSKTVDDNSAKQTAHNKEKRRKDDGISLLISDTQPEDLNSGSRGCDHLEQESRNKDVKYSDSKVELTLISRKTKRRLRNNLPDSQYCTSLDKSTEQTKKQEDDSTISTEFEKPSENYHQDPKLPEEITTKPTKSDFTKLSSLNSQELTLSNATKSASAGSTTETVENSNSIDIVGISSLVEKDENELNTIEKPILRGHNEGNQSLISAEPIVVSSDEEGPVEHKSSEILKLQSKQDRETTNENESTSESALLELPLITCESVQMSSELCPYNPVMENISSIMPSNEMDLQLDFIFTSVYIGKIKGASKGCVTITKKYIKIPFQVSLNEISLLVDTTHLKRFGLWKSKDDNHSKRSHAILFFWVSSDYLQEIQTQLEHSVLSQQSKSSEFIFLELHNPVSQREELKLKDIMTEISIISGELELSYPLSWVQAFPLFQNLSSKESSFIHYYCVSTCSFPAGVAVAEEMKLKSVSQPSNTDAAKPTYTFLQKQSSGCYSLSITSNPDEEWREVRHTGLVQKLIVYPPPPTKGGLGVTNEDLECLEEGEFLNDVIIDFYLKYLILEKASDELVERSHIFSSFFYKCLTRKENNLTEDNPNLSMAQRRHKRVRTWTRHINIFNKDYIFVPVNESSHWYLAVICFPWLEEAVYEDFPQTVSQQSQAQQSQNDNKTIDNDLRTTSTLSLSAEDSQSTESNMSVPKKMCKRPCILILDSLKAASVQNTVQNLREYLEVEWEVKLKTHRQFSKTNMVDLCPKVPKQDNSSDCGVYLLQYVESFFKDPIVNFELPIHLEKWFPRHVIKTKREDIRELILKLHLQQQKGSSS
# [11] = molecular target: Envelope glycoprotein gp160 (Human immunodeficiency virus 1, UniProt Q6QLK5); test: inhibitors of HIV fusion peptide binding, primary screen, biochemical, uHTS, fluorescence dequenching (AID 1986)
# [12] = NIH-3T3 fibroblast cytotoxicity, dose response, cytotoxicity control, cell-based, fluorescence, Alamar Blue, secondary assay (AID 2327); type: functional;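 also: NIH-3T3 mouse fibroblasts cultured with fluconazole at 8 µg/mL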
# [13] = C. albicans growth with fluconazole, confirmation, fluorescence, retest (AID 2467); type: functional, cell-based
# [14] = molecular target: T5, Short transient receptor potential channel 4 (Mus musculus, UniProt Q9QUQ5); test: mouse TRPC4 channel inhibitors, dose response, cell-based, HEK293 TRPC4/mu-opioid, Fluo-4 calcium (AID 434942); type: functional;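 also: potency of inhibitors blocking the TRPC4 calcium response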
# T5 sequence (Q9QUQ5 whole entry): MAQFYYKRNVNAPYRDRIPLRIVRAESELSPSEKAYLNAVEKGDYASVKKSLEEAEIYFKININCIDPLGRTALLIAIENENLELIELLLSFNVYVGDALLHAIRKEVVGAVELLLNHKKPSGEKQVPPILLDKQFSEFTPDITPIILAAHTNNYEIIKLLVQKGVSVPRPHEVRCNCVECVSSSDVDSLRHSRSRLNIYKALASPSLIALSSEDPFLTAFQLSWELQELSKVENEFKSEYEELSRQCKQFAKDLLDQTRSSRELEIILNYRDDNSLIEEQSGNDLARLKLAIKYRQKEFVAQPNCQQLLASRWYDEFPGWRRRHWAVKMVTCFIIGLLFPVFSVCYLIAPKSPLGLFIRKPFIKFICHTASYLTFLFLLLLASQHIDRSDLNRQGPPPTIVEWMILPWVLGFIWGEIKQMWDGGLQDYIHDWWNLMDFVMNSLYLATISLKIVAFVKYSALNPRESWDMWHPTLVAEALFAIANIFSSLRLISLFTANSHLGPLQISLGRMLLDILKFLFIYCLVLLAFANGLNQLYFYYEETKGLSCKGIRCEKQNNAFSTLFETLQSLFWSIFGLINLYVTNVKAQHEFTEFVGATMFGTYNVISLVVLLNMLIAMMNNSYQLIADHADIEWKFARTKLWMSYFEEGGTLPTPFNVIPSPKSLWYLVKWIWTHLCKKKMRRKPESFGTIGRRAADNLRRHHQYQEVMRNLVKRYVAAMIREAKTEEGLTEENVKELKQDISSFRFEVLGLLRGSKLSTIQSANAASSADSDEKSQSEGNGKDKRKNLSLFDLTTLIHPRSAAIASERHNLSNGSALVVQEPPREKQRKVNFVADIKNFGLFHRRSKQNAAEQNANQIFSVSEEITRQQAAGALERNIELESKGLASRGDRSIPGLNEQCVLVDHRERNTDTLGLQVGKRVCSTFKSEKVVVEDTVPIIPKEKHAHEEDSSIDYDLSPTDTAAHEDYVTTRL
# [15] = tested on: Vero; test: Vero cell cytotoxicity, cytotoxicity control for flavivirus capping enzyme inhibitors (AID 588742); type: functional; conditions: Chlorocebus sabaeus
# [16] = molecular target: Genome polyprotein (dengue virus type 2, UniProt P29990); test: Dengue-2 NS5 methyltransferase inhibitors, primary screen, biochemical, confirmation dose response (AID 588689); type: functional
# [17] = molecular target: Hexokinase-1 (Homo sapiens, UniProt P19367); test: SAR analysis of small molecule inhibitors of hexokinase domain containing I (HKDC1) in the hexokinase 1 selectivity assay. [Related pubchem assays (depositor defined):AID493160, AID493190]; type: functional
# [18] = molecular target: T6, Hexokinase HKDC1 (Homo sapiens, UniProt Q2TB90); test: SAR analysis of small molecule inhibitors of hexokinase domain containing I (HKDC1). [Related pubchem assays (depositor defined):AID493160, AID493190]; type: functional
# T6 sequence (Q2TB90 whole entry): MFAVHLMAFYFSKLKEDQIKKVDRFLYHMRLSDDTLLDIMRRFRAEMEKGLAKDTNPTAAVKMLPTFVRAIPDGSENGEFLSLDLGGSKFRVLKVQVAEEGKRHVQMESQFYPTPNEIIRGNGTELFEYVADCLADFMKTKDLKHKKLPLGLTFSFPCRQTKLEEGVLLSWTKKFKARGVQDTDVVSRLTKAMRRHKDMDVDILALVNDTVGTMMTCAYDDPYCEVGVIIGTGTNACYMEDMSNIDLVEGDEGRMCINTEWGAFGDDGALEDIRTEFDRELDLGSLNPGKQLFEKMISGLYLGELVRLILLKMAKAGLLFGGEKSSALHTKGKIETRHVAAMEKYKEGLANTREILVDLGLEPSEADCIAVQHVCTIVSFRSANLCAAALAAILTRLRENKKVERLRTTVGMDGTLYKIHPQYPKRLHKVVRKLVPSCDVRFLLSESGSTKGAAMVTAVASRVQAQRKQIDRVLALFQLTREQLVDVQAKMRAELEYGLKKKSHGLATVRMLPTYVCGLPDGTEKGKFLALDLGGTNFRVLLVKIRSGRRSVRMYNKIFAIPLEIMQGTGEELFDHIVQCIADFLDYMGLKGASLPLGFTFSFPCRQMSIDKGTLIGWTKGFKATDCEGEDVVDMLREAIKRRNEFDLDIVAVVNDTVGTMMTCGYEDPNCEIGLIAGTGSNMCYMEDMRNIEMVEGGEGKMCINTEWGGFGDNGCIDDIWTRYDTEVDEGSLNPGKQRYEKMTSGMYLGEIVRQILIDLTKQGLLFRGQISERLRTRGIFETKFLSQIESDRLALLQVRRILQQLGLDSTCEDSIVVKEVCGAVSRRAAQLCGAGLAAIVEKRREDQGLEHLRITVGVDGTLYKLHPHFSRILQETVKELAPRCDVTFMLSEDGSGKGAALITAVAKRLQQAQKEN
# Sequence of Cysteine protease ATG4B (Q9Y4P1 whole entry): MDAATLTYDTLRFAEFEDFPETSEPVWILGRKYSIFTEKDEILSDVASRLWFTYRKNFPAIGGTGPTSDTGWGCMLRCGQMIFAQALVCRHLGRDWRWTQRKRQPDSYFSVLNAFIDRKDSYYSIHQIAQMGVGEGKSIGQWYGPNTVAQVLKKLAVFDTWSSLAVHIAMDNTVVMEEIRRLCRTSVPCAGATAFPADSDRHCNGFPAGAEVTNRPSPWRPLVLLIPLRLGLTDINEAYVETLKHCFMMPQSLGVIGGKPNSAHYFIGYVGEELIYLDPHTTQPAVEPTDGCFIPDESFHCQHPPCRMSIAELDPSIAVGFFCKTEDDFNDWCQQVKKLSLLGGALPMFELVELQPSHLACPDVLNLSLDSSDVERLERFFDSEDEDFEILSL
# Sequence of Envelope glycoprotein gp160 (Q6QLK5 whole entry, the tested form may be a part): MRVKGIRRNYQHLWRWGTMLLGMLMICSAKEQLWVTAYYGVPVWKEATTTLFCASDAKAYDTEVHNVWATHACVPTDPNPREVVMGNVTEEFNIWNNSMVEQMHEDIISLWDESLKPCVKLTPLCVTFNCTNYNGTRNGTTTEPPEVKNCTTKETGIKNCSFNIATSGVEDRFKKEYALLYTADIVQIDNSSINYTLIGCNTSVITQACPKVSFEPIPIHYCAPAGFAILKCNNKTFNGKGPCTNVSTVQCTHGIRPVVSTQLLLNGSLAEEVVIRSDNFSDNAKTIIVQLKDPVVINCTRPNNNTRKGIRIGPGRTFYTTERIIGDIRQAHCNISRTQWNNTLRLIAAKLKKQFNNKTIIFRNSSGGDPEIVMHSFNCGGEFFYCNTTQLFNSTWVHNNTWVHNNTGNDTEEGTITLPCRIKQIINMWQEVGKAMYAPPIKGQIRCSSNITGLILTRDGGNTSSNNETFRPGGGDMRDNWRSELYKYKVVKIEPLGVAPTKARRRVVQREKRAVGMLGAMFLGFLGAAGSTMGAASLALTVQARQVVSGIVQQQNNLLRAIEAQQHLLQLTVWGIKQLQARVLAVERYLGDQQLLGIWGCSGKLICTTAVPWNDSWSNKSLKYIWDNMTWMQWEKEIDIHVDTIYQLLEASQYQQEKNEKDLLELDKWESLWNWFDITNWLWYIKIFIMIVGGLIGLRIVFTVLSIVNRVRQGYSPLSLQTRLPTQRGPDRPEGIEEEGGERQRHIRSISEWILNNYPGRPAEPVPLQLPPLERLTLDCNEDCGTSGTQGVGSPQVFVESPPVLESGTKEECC
# Sequence of Phospholipase A2 (P04054 whole entry): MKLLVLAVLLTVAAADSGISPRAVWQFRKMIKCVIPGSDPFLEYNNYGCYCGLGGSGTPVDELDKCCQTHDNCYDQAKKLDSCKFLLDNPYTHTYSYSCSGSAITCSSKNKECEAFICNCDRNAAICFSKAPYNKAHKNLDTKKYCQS
# Sequence of Genome polyprotein (P29990 2492-3391 limits assumed): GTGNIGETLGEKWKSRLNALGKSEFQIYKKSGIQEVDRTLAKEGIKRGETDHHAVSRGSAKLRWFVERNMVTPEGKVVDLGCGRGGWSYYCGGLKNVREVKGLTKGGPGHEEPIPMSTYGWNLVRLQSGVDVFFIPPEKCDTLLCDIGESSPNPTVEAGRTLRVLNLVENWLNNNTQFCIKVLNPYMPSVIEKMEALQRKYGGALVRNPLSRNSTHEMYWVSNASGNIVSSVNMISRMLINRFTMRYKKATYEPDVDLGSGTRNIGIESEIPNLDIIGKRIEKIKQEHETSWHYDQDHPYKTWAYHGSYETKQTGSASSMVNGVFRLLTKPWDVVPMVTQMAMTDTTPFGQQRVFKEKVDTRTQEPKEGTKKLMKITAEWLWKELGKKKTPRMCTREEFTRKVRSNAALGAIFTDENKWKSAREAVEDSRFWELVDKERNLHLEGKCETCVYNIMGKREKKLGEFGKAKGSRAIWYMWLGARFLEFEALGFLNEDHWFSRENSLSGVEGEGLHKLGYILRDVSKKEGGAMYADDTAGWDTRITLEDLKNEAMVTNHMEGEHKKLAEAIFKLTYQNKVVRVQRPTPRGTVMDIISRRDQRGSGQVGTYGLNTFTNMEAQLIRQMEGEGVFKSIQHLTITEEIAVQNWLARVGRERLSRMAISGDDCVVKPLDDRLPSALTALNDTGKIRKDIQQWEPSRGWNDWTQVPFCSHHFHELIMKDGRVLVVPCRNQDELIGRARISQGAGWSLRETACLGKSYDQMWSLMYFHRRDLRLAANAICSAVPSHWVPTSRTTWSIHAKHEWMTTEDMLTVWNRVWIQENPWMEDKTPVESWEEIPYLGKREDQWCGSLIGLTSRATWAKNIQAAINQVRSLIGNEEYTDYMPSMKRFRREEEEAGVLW
# Sequence of Hexokinase-1 (P19367 whole entry, the tested form may be a part): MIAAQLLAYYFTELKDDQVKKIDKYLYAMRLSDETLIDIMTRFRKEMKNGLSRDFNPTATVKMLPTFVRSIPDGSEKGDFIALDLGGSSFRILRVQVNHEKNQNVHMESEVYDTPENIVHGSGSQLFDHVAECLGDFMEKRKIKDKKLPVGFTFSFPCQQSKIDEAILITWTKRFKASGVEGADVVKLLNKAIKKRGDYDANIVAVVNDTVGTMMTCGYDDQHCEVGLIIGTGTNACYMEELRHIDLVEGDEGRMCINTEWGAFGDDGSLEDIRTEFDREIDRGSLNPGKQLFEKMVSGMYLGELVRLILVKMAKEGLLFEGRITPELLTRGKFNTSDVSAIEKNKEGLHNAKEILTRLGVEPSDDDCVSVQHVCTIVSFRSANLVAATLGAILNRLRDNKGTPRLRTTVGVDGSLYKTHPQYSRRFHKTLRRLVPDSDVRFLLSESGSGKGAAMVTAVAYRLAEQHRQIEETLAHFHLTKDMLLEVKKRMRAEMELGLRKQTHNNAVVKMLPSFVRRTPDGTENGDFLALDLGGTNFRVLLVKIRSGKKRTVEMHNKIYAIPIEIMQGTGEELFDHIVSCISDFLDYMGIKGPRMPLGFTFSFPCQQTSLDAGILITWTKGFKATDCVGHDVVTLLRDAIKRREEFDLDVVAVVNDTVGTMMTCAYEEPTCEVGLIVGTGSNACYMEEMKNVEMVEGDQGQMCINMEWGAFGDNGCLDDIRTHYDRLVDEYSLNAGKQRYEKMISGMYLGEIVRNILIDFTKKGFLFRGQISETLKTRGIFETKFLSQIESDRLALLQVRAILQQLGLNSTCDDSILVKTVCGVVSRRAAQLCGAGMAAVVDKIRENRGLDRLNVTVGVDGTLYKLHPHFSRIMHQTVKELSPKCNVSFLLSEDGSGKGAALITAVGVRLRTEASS
smiles,measurement,setting,value
O=C(c1ccc(Cl)cc1)N1CCN(c2ncccn2)CC1,AC50,[1],2.91 µM (active)
same,AC50,[2],3.81 µM (active)
same,AC50,[3],17.6 µM (active)
same,AC50,[4],0.57 µM (active)
Cc1ccc(C(=O)NC(=S)Nc2ccccc2C(F)(F)F)cc1C,IC50,[5],14.6 µM (active)
same,IC50,[6],6.91 µM (active)
NS(=O)(=O)c1ccc(CCNC(=O)c2sc3cc(Cl)ccc3c2Cl)cc1,IC50,[7],> 99 µM (inactive)
same,IC50,[8],> 99 µM (inactive)
same,IC50,[9],> 99 µM (inactive)
same,IC50,[10],> 99 µM (inactive)
CCc1ccc(/C=C2/SC(=S)N(CCCC(=O)Nc3ccccc3C(=O)O)C2=O)cc1,IC50,[11],> 99 µM (inactive)
same,EC50,[12],14 µM (inconclusive)
same,EC50,[13],4.17 µM (active)
same,EC50,[14],4.22 µM (active)
same,CC50,[15],> 40 µM (active)
same,IC50,[16],31.4 µM (active)
O=C(Nc1cccc(C(F)(F)F)c1)c1cccc(NC(=O)c2ccc3nccnc3c2)c1,IC50,[17],> 80 µM (inactive)
same,IC50,[18],> 80 µM (inactive)
